This note sets out measurements from US9724366B2, “CD11 B[low] macrophages and conditioned media thereof for treating cancer and/or fibrosis” (CARMEL-HAIFA UNIVRSITY ECONOMIC CORPORATION LTD., priority 2012, dated 2017).

Data set [1] concerns macrophages recovered from peritoneal exudates. Nature of the data set: Ex vivo macrophage switch to the CD11b^low phenotype by pro-resolving lipid mediators (flow cytometry). As to conditions: mediators 50 nM, Dex 25 μg/ml. The class given is cell-based, mice. The method, then: FIG. 8 show promotion of macrophage switch to the CD11b^low phenotype by pro-resolving lipid mediators. Macrophages were recovered from peritoneal exudates 72 hrs post peritonitis initiation and incubated overnight with vehicle (RPMI 10% FBS+0.05% ethanol), RvD1, RvD2, PD1, LXB4, or 15-epi-LXA4, (all at 50 nM), apoptotic cells (M/N ratio of 1:5), or Dex (25 μg/ml). Then, the cells were stained for CD11b and analyzed by flow cytometry, and the percentage of CD11b^low (A) and CD11b^high (B) macrophages was determined. Results are mean±SE of two experiments (n=2). #P<0.005, $ P<0.01, * P<0.05 compared to vehicle.
Macrophages were recovered from peritoneal exudates 72 hrs post peritonitis initiation and incubated overnight with either RPMI 10% FBS+0.05% ethanol, the resolvins RvD1 or RvD2, […] PD1 or lipoxins LXB4, or 15-epi-LXA4, (all at 50 nM), apoptotic cells (M/N ratio of 1:5), or Dex (25 μg/ml). After 20 hours, the cells were stained for CD11b and analyzed by flow cytometry.
Background: A flow cytometer gives signals particle by particle.

The next data set relates to macrophages. Nature of the data set: Cytokine secretion (ELISA) of macrophages from treated mice, unstimulated or activated with LPS. It is filed as cell-based. As to conditions: unstimulated and LPS-stimulated macrophages. The method, then: Exudate macrophages were sorted or separated using PE selection magnetic beads (StemCell Technologies) and incubated (1×10^6 cells in 0.5 mL of culture media) with LPS (0-1000 ng/mL), poly (I:C) (4 μg/mL), or CpG-ODN (1 μM). After 16 h, the supernatants were collected and their TNF-α, IL-β, IL-10, TGFβ, CCL2, CCL3, and CCL5 contents were determined by standard ELISA.
To validate the improvement in immune-silencing of macrophages that followed treatment with RvD1, RvE1 and Dex, macrophages were activated with LPS, and cytokine secretion was determined. […] Thus, treatment with RvD1, RvE1, and Dex, promoted macrophage immune-silencing, as well as the secretion of pro-resolving cytokines from these cells.
On the technique in general: In an ELISA, binding on a coated surface is turned into a signal by an enzyme label.

Data set [2] deals with peritonitis-affected mice. Put plainly: Murine zymosan A peritonitis, RvD1, RvE1 or Dex introduced into the peritoneum. The class given is in vivo. As to conditions: for appearance of CD11b^low macrophages in peritoneal exudates, increases over vehicle treatment: RvD1, RvE1 100 ng/mouse, Dex 25 mg/mouse into peritoneum 48 h after peritonitis initiation, exudates at 66 h; for neutrophil numbers: peritoneal exudates. The method, then: Male C57BL/6 mice (6-8 wk) were injected intraperitionealy (I.P) with zymosan A (1 mg). 66 hours post zymosan A injection, the mice were euthanized by CO2, their peritoneal cavity was lavaged with 5 ml of phosphate buffered saline (PBS) and the peritoneal exudates were collected by centrifugation for further analysis and experimentation.
Peritoneal exudates were collected and exudate cells were stained with FITC-conjugated rat anti-mouse Ly-6G, PE-conjugated rat anti-mouse F4/80, and PerCP-conjugated rat anti-mouse CD11b (Biolegend) and analyzed by FACSCalibur (Beckton-Dickinson). Macrophages were isolated using EasySep PE selection magnetic beads following the manufacturer's instructions (StemCell Technologies).
In some experiments, the macrophages were sorted to CD11b^high and CD11b^low populations of >95% purity, using FACSaria (Beckton-Dickinson), and the separate populations were used for microscopic analysis and for ex vivo stimulation. In some experiments, PKH2-PCL green (0.25 mM, 0.5 mL) was injected I.P at 48 h and peritoneal cells were recovered 4 h later, immunostained for F4/80 and CD11b as above and analyzed for fluorescence intensity of different macrophage populations. In relevant experiments, vehicle, RvD1, RvE1 (100 ng/mouse each), or Dex (25 mg/mouse) were introduced to the peritoneum 48 h after peritonitis initiation, and the exudates were recovered after 66 h and analyzed as before.
Exudate cells or sorted CD11b^high and CD11b^low macrophages were stained with Hoechst, and enumerated under a fluorescent microscope (Zeiss). Two areas of two cover slips, each containing at least 50 (overall 200) macrophages were analyzed, and the average number of PMN engulfed per macrophage as well as the number of macrophages with cutoff numbers of engulfed PMN, were calculated.
Similar properties were attributed to glucocorticoids, such as dexamethasone (Dex), that inhibit leukocyte infiltration to inflammation sites and promote the clearance of apoptotic PMN by macrophages. To determine whether pro-resolving mediators regulate emergence of CD11b^low macrophages and thereby promote resolution, RvD1, RvE1, or Dex were introduced into peritonitis-affected mice, and the recovered leukocytes were collected and analyzed for macrophage and neutrophil numbers, macrophage CD11b expression, engulfment of PMN, and responsiveness to LPS. The results are presented in FIG. 8 of Schif-Zuck et al., 2011, which is incorporated herein by reference. […] In addition, RvD1, RvE1 and Dex enhanced the appearance of CD11b^low macrophages (32.8±8.8%, 46.2±1.8%, and 39.9±4.6% increases over vehicle treatment, for RvD1, RvE1, and Dex, respectively) in peritoneal exudates. […] To determine whether RvD1, RvE1, and Dex regulate apoptotic PMN engulfment by macrophages during resolution, exudate cells were enumerated for PMN engulfment and analyzed as in FIG. 2.

For the next data set, the system named is MEFs. Put plainly: Apoptosis detection in MEFs by TUNEL. It is filed as cell-based, mouse. The note with it: 1.5 μg/ml, 4 hours, positive control. The method, then: MEF cell line were cultured as described above in 8 well chamber glass slides, fixed with 4% PFA containing 5% sucrose and incubated for 1 hour with a mixture of TUNEL reaction mix according to the manufacturer's protocol (In Situ Cell death Detection Kit; TMR Red) covered with aluminum foil and placed in the 37° C., 5% CO2 incubator for 1 hour. Next, the slides were washed three times with PBS for 15 minutes each, and mounted with VECTASHIELD mounting medium with DAPI. The slides were imaged using a Nikon A1-R confocal laser scanning microscope (University of Haifa, Haifa, Israel).
3 images were captured from each well. Each captured frame was analyzed using NIS-Elements AR software to measure in the defined area the number of cells with positive DAPI staining, co-staining for DAPI and TUNEL (selected cells were larger than 8 μm), or Col-I expression by measuring sum intensity of area stained for Col-I per captured field.
Next we explored whether the inhibition of MEF proliferation by the CM-Mres was due to cell cycle arrest or increase in apoptosis of MEF. Therefore, we tested apoptosis of the MEFs at 48 hours. Therefore, MEFs were either untreated or were induced to differentiate on 8 chamber glass slides and were pre-incubated with CM-Mres 1 hour prior to adding TGFβ1. […] The cells were fixed and evaluated for apoptotic death by TUNEL staining. […]

Consider `CCCCC[C@@H](O)/C=C/C=C\C=C\C=C\[C@@H](O)[C@@H](O)CCCC(=O)O` [15-epi-LXA4], for which the “macrophage switch to the CD11b^low phenotype” value (“macrophage switch” below) in data set [1] is given as “promotes macrophage switch”.

As to `CC[C@@H](O)/C=C/C=C\C[C@@H](O)/C=C/C=C/C=C\[C@@H](O)CCCC(=O)O` [RvE1, 5S,12R,18R-trihydroxy-4Z,8E,10E,14Z,16E-eico sapentaenoic acid], in the data set with macrophages, the “secretion of TNFα” value is given as “inhibited”. Besides, in data set [2], the “appearance of CD11b^low macrophages in peritoneal exudates, increases over vehicle treatment” value (shortened to “appearance … increases over vehicle treatment”) is 46.2±1.8% and the neutrophil numbers entry is listed as “induced a reduction”. In data set [2] (mouse, in vivo), the “CD11b expression on CD11b^high macrophages” value is recorded as “reduced” and the “appearance in the peritoneum of low-engulfing macrophages (less than 2 N/M)” value is given as “induced”.

As for `CC/C=C\C[C@H](O)\C=C/C=C/C=C/[C@H](O)C/C=C\C/C=C\CCC(=O)O` [PD1], the “macrophage switch” value in data set [1] is “promotes macrophage switch”.

Take `C[C@@H]1C[C@H]2[C@@H]3CCC4=CC(=O)C=C[C@]4(C)[C@@]3(F)[C@@H](O)C[C@]2(C)[C@@]1(O)C(=O)CO` [Dex, dexamethasone]: the “appearance … increases over vehicle treatment” value in data set [2] is 39.9±4.6%.

Regarding `CN[C@@H]1C[C@H]2O[C@@](C)([C@@H]1OC)n1c3ccccc3c3c4c(c5c6ccccc6n2c5c31)C(=O)NC4` [staurosporine], in the data set with MEFs, the “percentage of apoptotic cells (TUNEL)” value is listed as “no significant changes”.

Regarding `CCCCC[C@H](O)[C@H](O)/C=C/C=C/C=C\C=C\[C@@H](O)CCCC(=O)O` [LXB4], the “macrophage switch” value in data set [1] is reported as “promotes macrophage switch”.

Regarding `CC/C=C\C[C@H](O)/C=C/C=C\C=C\C=C\[C@@H](O)[C@@H](O)C/C=C\CCC(=O)O` [RvD1, 7S,8R,17S-trihydroxy-4Z,9E,11E,13Z,15E,19Z-docosahexaenoic acid], the “secretion of TNFα” value with macrophages is “inhibited”. Also, the “macrophage switch” value in data set [1] is listed as “promotes macrophage switch”. In data set [2], the “appearance … increases over vehicle treatment” value was 32.8±8.8% and the neutrophil numbers result is “induced a reduction”. In data set [2] (mouse, in vivo), the “CD11b expression on CD11b^high macrophages” value is recorded as “reduced”, the “number of macrophages in peritoneal cavities” value was “reduced” and the “numbers of apoptotic PMN engulfed by macrophages present in the peritoneum” value was “reduced”.

Regarding `CC/C=C\C[C@H](O)[C@H](O)/C=C/C=C/C=C\C=C\[C@@H](O)C/C=C\CCC(=O)O` [RvD2], the “macrophage switch” value in data set [1] is “promotes macrophage switch”.
